Measurements published in patent EP0603240B1, “SAFENING HERBICIDAL PYRAZOLYLSULFONYLUREAS” (priority 1991, dated 1993).

Assays:
Type in all cases: in vivo
[1] = system: barnyardgrass (Echinochloa crusgalli); assay: Example 8, Procedure II: Herbicide No. 1 + butachlor (No. 9) with antidotes
Description: (§1) Containers were filled and compacted with a fumigated silt loam top soil to a depth of about 1.3 cm from the top of the container. A first container was designated as an untreated control, a second container was designated as a herbicide control, and a third container was designated as a herbicide + antidote test container. Each of the containers was seeded with a crop species. A measured amount of herbicide dispersed or dissolved in acetone was applied to a measured quantity of soil. To this same quantity of soil treated with herbicide, there was added a measured amount of antidote dispersed or dissolved in acetone. The quantity of soil treated with the herbicide and antidote was thoroughly mixed to incorporate the herbicide and antidote in the soil uniformly. The seed bed in the third container of soil was covered with the soil treated with the herbicide and antidote and the container was leveled. For each test series, the seed beds of the first and second containers were likewise covered by soil layers. the cover layer of the first container was not treated with herbicide or antidote.
(§2) The containers were then placed on a bench in a greenhouse and sub-irrigated as required for the duration of the test. […] Plant response is measured in terms of percent injury. Antidote efficacy is indicated as the difference in plant injury by the herbicide(s) without the antidote and with the antidote.
(§3) This procedure is the same as Procedure I, but modified in the manner that after incorporation of the chemicals (herbicide and antidote) the containers with the covered seedbed were treated with an initial overhead irrigation equivalent to 0.6 cm rainfall, then subsequently sub-irrigated as required on greenhouse benches.
(§4) In the series of greenhouse tests described below, for routine screening purposes the herbicide/antidote compositions were tested in crop/weed combinations involving corn as the crop and either or both of the weeds barnyardgrass (Echinochloa crusgalli), a monocotyledonous weed, and velvetleaf (Abutilon theophrasti), a dicotyledonous weed. In the tables below, these weeds are indicated by the symbols "BYG" and "VL", respectively.
(§5) In this test, the efficacy of the same five antidotes used in Examples 6 and 7 was investigated in compositions comprising Herbicide No. 1 and as a co-herbicide, butachlor (Herbicide No. 9), active ingredient in MACHETE® herbicide, a leading commercial rice herbicide. The test procedure used in this example was the same as that in Examples 6 and 7.

[2] = system: velvetleaf (Abutilon theophrasti); assay: as above
Description: as §1, §2, §3, §4, §5

corn [3] = assay: Example 19, Procedure II: Herbicide No. 1 + ERADICANE EXTRA with added antidotes
In short: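 Corn seeded in silt loam, covered with soil incorporating herbicide plus antidote (from acetone); EPTC given as ERADICANE EXTRA (with R-29148 and dietholate). Initial overhead irrigation equal to 0.6 cm rain, then greenhouse sub-irrigation. Percent injury scored; efficacy is injury without antidote minus injury with it.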

corn [4] = assay: Example 21, Procedure II: Herbicide No. 1 + SUTAN PLUS (butylate + antidote) with antidotes
Description: as §1, §2, §3
In this example, tests were conducted as in the preceding Examples 18-20, except here the co-herbicidal component was SUTAN® PLUS, a commercial product comprising as the active herbicidal ingredient the compound butylate (Herbicide No. 10) and an antidote […] (Antidote No. 1). Again, the antidotal compounds herein were Nos. 1, 2, 7, 13 and 15. Procedure II was used.

[5] = system: Giant foxtail (Setaria fabergi); assay: Example 23, Procedure II: Antidote Nos. 15 and 17-21 against Herbicide No. 1, 13 days after application
Description: as §1, §2, §3
(§6) In other greenhouse tests, using Procedure II described above, the safening efficacy of Antidote Nos. 15 and 17-21 was evaluated against Herbicide No. 1 in corn in the presence of Giant foxtail (Setaria fabergi) and Velvetleaf (Abutilon theophrasti) as representative annual monocotyledonous and dicotyledonous weeds, respectively.
(§7) Test results are shown in Tables 23A and 23B wherein the indicated plant inhibition represents the average of duplicate replications, with observations being made thirteen (13) days after application of the chemicals. Giant foxtail and Velvetleaf are represented by the symbols "GFT" and "VL", respectively. The data in Table 23A show the test results using the antidotes at 2.24 kg/ha, whereas in Table 23B, the antidotal rate was reduced to 0.56 kg/ha.

corn [6] = assay: as above; settings: 13 days after application
Description: as §1, §2, §3, §6, §7

[7] = system: velvetleaf (Abutilon theophrasti); assay: as above
Description: as §1, §2, §3, §6, §7

[8] = Herbicide No.1 0.14 + No.9 2.24 kg/ha + antidote 2.24 kg/ha
[9] = Herbicide No.1 0.14 + No.9 2.24 kg/ha + antidote 8.96 kg/ha
[10] = Herbicide No.1 0.56 + No.9 2.24 kg/ha + antidote 2.24 kg/ha
[11] = Herbicide No.1 0.56 + No.9 2.24 kg/ha + antidote 8.96 kg/ha
[12] = Herbicide No.1 0.56 kg/ha + ERADICANE EXTRA 8.96 kg/ha, antidote 2.24 kg/ha
[13] = Herbicide No.1 0.56 kg/ha + ERADICANE EXTRA 8.96 kg/ha, antidote 8.96 kg/ha
[14] = Herbicide No.1 1.12 kg/ha + ERADICANE EXTRA 8.96 kg/ha, antidote 2.24 kg/ha
[15] = Herbicide No.1 1.12 kg/ha + ERADICANE EXTRA 8.96 kg/ha, antidote 8.96 kg/ha
[16] = Herbicide No.1 0.56 kg/ha + SUTAN + 8.96 kg/ha, antidote 2.24 kg/ha
[17] = Herbicide No.1 0.56 kg/ha + SUTAN + 8.96 kg/ha, antidote 8.96 kg/ha
[18] = Herbicide No.1 1.12 kg/ha + SUTAN + 8.96 kg/ha, antidote 2.24 kg/ha
[19] = Herbicide No.1 1.12 kg/ha + SUTAN + 8.96 kg/ha, antidote 8.96 kg/ha
[20] = Table 23A, Herb. No. 1 0.14 Kg/Ha + antidote 2.24 Kg/ha
[21] = Table 23A, Herb. No. 1 0.28 Kg/Ha + antidote 2.24 Kg/ha
[22] = Table 23A, Herb. No. 1 0.56 Kg/Ha + antidote 2.24 Kg/ha
[23] = Table 23A, Herb. No. 1 1.12 Kg/Ha + antidote 2.24 Kg/ha
[24] = Table 23B, Herb. No. 1 0.14 Kg/Ha + antidote 0.56 Kg/ha
[25] = Table 23B, Herb. No. 1 0.28 Kg/Ha + antidote 0.56 Kg/ha
[26] = Table 23B, Herb. No. 1 0.56 Kg/Ha + antidote 0.56 Kg/ha
[27] = Table 23B, Herb. No. 1 1.12 Kg/Ha + antidote 0.56 Kg/ha

SMILES: CC1(C)OC(c2ccco2)CN1C(=O)C(Cl)Cl (centres unmarked) [compound 15]
- % Injury BYG [1, 8]: 99%
- % Injury BYG [1, 9]: 98%
- % Injury BYG [1, 10]: 95%
- % Injury BYG [1, 11]: 97%
- % Injury VL [2, 8]: 85%
- % Injury VL [2, 9]: 70%
- % Injury VL [2, 10]: 80%
- % Injury VL [2, 11]: 75%
- % Injury Corn (corn [3]; [12]): 20%
- % Injury Corn (corn [3]; [13]): 30%
- % Injury Corn (corn [3]; [14]): 25%
- % Injury Corn (corn [3]; [15]): 25%
- % Injury Corn (corn [4]; [16]): 25%
- % Injury Corn (corn [4]; [17]): 25%
- % Injury Corn (corn [4]; [18]): 30%
- % Injury Corn (corn [4]; [19]): 20%
- % Inhibition GFT [5, 20]: 20%
- % Inhibition GFT [5, 21]: 30%
- % Inhibition GFT [5, 22]: 65%
- % Inhibition GFT [5, 23]: 75%
- % Inhibition GFT [5, 24]: 20%
- % Inhibition GFT [5, 25]: 30%
- % Inhibition GFT [5, 26]: 60%
- % Inhibition GFT [5, 27]: 70%
- % Inhibition Corn (corn [6]; [20]): 5%
- % Inhibition Corn (corn [6]; [21]): 0%
- % Inhibition Corn (corn [6]; [22]): 5%
- % Inhibition Corn (corn [6]; [23]): 20%
- % Inhibition Corn (corn [6]; [24]): 0%
- % Inhibition Corn (corn [6]; [25]): 0%
- % Inhibition Corn (corn [6]; [26]): 5%
- % Inhibition Corn (corn [6]; [27]): 10%
- % Inhibition VL [7, 20]: 90%
- % Inhibition VL [7, 21]: 90%
- % Inhibition VL [7, 22]: 90%
- % Inhibition VL [7, 23]: 98%
- % Inhibition VL [7, 24]: 85%
- % Inhibition VL [7, 25]: 90%
- % Inhibition VL [7, 26]: 95%
- % Inhibition VL [7, 27]: 95%

SMILES: O=C1OC(=O)c2cccc3cccc1c23 [compound 2]
- % Injury BYG [1, 8]: 99%
- % Injury BYG [1, 9]: 99%
- % Injury BYG [1, 10]: 99%
- % Injury BYG [1, 11]: 98%
- % Injury VL [2, 8]: 70%
- % Injury VL [2, 9]: 75%
- % Injury VL [2, 10]: 90%
- % Injury VL [2, 11]: 80%
- % Injury Corn (corn [3]; [12]): 20%
- % Injury Corn (corn [3]; [13]): 25%
- % Injury Corn (corn [3]; [14]): 25%
- % Injury Corn (corn [3]; [15]): 20%
- % Injury Corn (corn [4]; [16]): 10%
- % Injury Corn (corn [4]; [17]): 5%
- % Injury Corn (corn [4]; [18]): 0%
- % Injury Corn (corn [4]; [19]): 15%
